Data set [1] relates to Leishmania amazonensis. The experiment in a line: Antileishmanial activity against Leishmania amazonensis WHOM/00 LTB 0016 amastigotes infected in mouse RAW264.7 cells assessed as parasite growth inhibition incubated for 24 hrs by panoptic staining based assay. The format is functional, organism-based. Particulars: WHOM/00 LTB 0016, RAW264.7, 24 h.
A short description of data set [2]: Selectivity index, ratio of CC50 for mouse RAW264.7 cells to IC50 for Leishmania amazonensis WHOM/00 LTB 0016 promastigotes. The format is toxicity. Particulars: read-out: Ratio CC50/IC50.
Data set [3] is described as follows: Selectivity index, ratio of CC50 for mouse RAW264.7 cells to IC50 for Leishmania amazonensis WHOM/00 LTB 0016 amastigotes infected in mouse RAW264.7 cells. The format is toxicity, cell-based. Particulars: read-out: Ratio CC50/IC50.
Data set [4] relates to Leishmania amazonensis. The experiment in a line: Antileishmanial activity against Leishmania amazonensis WHOM/00 LTB 0016 promastigotes assessed as parasite growth inhibition incubated for 72 hrs. The format is functional, organism-based. Particulars: WHOM/00 LTB 0016, 72 h.
Data set [5] concerns Splenocyte. Kind of data set: Immunomodulatory activity in mouse splenocytes assessed as reduction in IL-6 level at 10 ug/ml incubated for 24 hrs by flow cytometry. The format is functional, cell-based. Particulars: dose 10.0 µg/ml. In general terms: Flow cytometry measures light scatter and fluorescence of single cells or particles in a stream.
The subject of data set [6] is Splenocyte. The experiment in a line: Immunomodulatory activity in mouse splenocytes assessed as effect on IFN-gamma level at 10 ug/ml incubated for 24 to 96 hrs by flow cytometry. Particulars: dose 10.0 µg/ml, time 24-96 hrs. The format is functional, cell-based.
For data set [7], the system named is Trypanosoma cruzi. Kind of data set: Antitrypanosomal activity against Trypanosoma cruzi Tulahuen amastigotes infected in mouse L929 cells assessed as parasite growth inhibition measured after 7 days by CPRG/Nonidet based assay. Particulars: L929, 168 h. The format is functional, organism-based.
Data set [8] relates to Trypanosoma cruzi. The experiment in a line: Induction of apoptosis in Trypanosoma cruzi trypomastigotes assessed as late apoptotic cells at 2 times IC50 incubated for 24 hrs by annexin V-FITC/PI staining based flow cytometry (reference value: 2.58 %). The format is functional.
For data set [9], the system named is Trypanosoma cruzi. The experiment in a line: Induction of apoptosis in Trypanosoma cruzi trypomastigotes assessed as early apoptotic cells at IC50 incubated for 24 hrs by annexin V-FITC/PI staining based flow cytometry (reference value: 0.10 %). The format is functional.
The test system of data set [10] is Trypanosoma cruzi. The experiment in a line: Induction of apoptosis in Trypanosoma cruzi trypomastigotes assessed as necrotic cells at 2 times IC50 incubated for 24 hrs by annexin V-FITC/PI staining based flow cytometry (reference value: 4.05 %). The format is functional.
A short description of data set [11]: Cytotoxicity against mouse RAW264.7 cells incubated for 48 hrs by MTT assay. The format is toxicity, cell-based. In general terms: Formazan colour is commonly taken as a measure of viable cells.
The test system of data set [12] is Trypanosoma cruzi. Kind of data set: Induction of apoptosis in Trypanosoma cruzi trypomastigotes assessed as late apoptotic cells at IC50 incubated for 24 hrs by annexin V-FITC/PI staining based flow cytometry (reference value: 2.58 %). The format is functional.
The test system of data set [13] is Trypanosoma cruzi. The experiment in a line: Induction of morphological changes in Trypanosoma cruzi trypomastigotes membrane assessed as appearance of membrane rupture at 2 times IC50 incubated for 24 hrs by SEM analysis.
Data set [14] in a line: Selectivity index, ratio of CC50 for mouse RAW264.7 cells to IC50 for Trypanosoma cruzi Y trypomastigotes infected in African green monkey Vero cells. Particulars: read-out: Ratio CC50/IC50. The format is toxicity.
In data set [15] the test system is Trypanosoma cruzi. The experiment in a line: Induction of morphological changes in Trypanosoma cruzi trypomastigotes assessed as appearance of rounded body at 2 times IC50 incubated for 24 hrs by SEM analysis. The format is functional, organism-based.
The test system of data set [16] is Trypanosoma cruzi. The experiment in a line: Induction of morphological changes in Trypanosoma cruzi trypomastigotes assessed as appearance of shortened flagellum at IC50 incubated for 24 hrs by SEM analysis. The format is functional, organism-based.
Data set [17] can be described thus: Selectivity index, ratio of CC50 for mouse RAW264.7 cells to IC50 for Trypanosoma cruzi Tulahuen amastigotes infected in mouse L929 cells. The format is toxicity, cell-based. Particulars: read-out: Ratio CC50/IC50.
The test system of data set [18] is Trypanosoma cruzi. Kind of data set: Induction of apoptosis in Trypanosoma cruzi trypomastigotes assessed as early apoptotic cells at 2 times IC50 incubated for 24 hrs by annexin V-FITC/PI staining based flow cytometry (reference value: 0.10 %). The format is functional.
In data set [19] the test system is Trypanosoma cruzi. The experiment in a line: Antitrypanosomal activity against Trypanosoma cruzi Y trypomastigotes infected in African green monkey Vero cells assessed as parasite growth inhibition incubated for 24 hrs by hemocytometry. The format is functional, organism-based.
The subject of data set [20] is Trypanosoma cruzi. The experiment in a line: Induction of morphological changes in Trypanosoma cruzi trypomastigotes assessed as appearance of contorted body at IC50 incubated for 24 hrs by SEM analysis. The format is functional, organism-based.
Data set [21] has as its system Splenocyte. Kind of data set: Immunomodulatory activity in mouse splenocytes assessed as reduction in IL-6 level at 10 ug/ml incubated for 96 hrs by flow cytometry. The format is functional, cell-based. Particulars: dose 10.0 µg/ml.
For data set [22], the system named is Trypanosoma cruzi. The experiment in a line: Induction of apoptosis in Trypanosoma cruzi trypomastigotes assessed as necrotic cells at IC50 incubated for 24 hrs by annexin V-FITC/PI staining based flow cytometry (reference value: 4.05 %). The format is functional.
For data set [23], the system named is Trypanosoma cruzi. The experiment in a line: Induction of morphological changes in Trypanosoma cruzi trypomastigotes assessed as appearance of loss of cytoplasmic content at 2 times IC50 incubated for 24 hrs by SEM analysis. The format is functional, organism-based.
Data set [24] relates to Trypanosoma cruzi. The experiment in a line: Induction of morphological changes in Trypanosoma cruzi trypomastigotes assessed as appearance of thinned flagellum at 2 times IC50 incubated for 24 hrs by SEM analysis. The format is functional, organism-based.
In data set [25] the test system is Splenocyte. The experiment in a line: Immunomodulatory activity in mouse splenocytes assessed as reduction in IL-10 level at 10 ug/ml incubated for 24 hrs by flow cytometry. The format is functional, cell-based. Particulars: dose 10.0 µg/ml.
Data set [26] deals with Trypanosoma cruzi. The experiment in a line: Induction of morphological changes in Trypanosoma cruzi trypomastigotes assessed as appearance of loss of cytoplasmic content at IC50 incubated for 24 hrs by SEM analysis. The format is functional, organism-based.

Active and inactive are the calls of the source. The rule behind the calls is not given here.

The source of these data is ChEMBL document CHEMBL5325424, “Structural design, synthesis, and anti-Trypanosomatidae profile of new Pyridyl-thiazolidinones” (Eur J Med Chem, 2023).

With `CCCCCCCCCCCCCCCCOP(=O)([O-])OCC[N+](C)(C)C` [MILTEFOSINE], the IC50 is 7.08 µM in the data set with Leishmania amazonensis [1] and 15.8 µM in the data set on Leishmania amazonensis [4]. For the same molecule, the figures for the selectivity ratio in data set [2] and in data set [3] were 8.79 and 17.5, respectively. The result in the data set with Splenocyte [5] was Active.

Consider `CC(C)C1S/C(=N/N=C/c2ccccn2)N(c2ccccc2)C1=O` (stereo unspecified), for which the result in the data set on Splenocyte [6] was inactive. For the same molecule, the IC50 with Trypanosoma cruzi [7] came to 0.6 µM; with Leishmania amazonensis [1], 16.8 µM; with Leishmania amazonensis [4], 150 µM; in the data set on Trypanosoma cruzi [19], 1 µM. For the same molecule, the Activity in the data set on Trypanosoma cruzi [8] is on record as 4.02%; in the data set on Trypanosoma cruzi [9] it was 0.97%; in the data set on Trypanosoma cruzi [10], 30.19%; with Trypanosoma cruzi [12] it was 3.83%; in the data set with Trypanosoma cruzi [18], 0.13%; in the data set with Trypanosoma cruzi [22] it was 6.38%. The molecule further gave a CC50 at 48 h in [11] of 47.4 µM. Further, the selectivity ratio stood at 0.3 in [2], 46.4 in [14], 79 in data set [17] and 2.82 in [3]. Moreover, the result in the data set on Trypanosoma cruzi [13], in the data set with Trypanosoma cruzi [15], with Trypanosoma cruzi [16], in the data set with Trypanosoma cruzi [20], with Splenocyte [21] and in the data set with Trypanosoma cruzi [23] was Active. Besides, the outcome in the data set on Trypanosoma cruzi [24] and in the data set with Splenocyte [25] was Active.

For the molecule `S=C(N/N=C/c1ccccn1)Nc1ccccc1`, the outcome in the data set with Splenocyte [6] was inactive. Further, the IC50 in the data set with Trypanosoma cruzi [7] worked out at 0.19 µM; in the data set with Leishmania amazonensis [1], 36.7 µM; with Leishmania amazonensis [4] it was 11.8 µM; with Trypanosoma cruzi [19], 6.09 µM. Further, the Activity is recorded as 2.9% in the data set on Trypanosoma cruzi [8]; 0.07% with Trypanosoma cruzi [9]; 6.42% in the data set with Trypanosoma cruzi [10]; 1.43% with Trypanosoma cruzi [12]; 10.3% with Trypanosoma cruzi [18]; 6.13% with Trypanosoma cruzi [22]. The same molecule showed a CC50 at 48 h in data set [11] of 6.09 µM. Also, the selectivity ratio in data set [2] was 0.51; in data set [14], 1; in [17], 31.2; in data set [3] it was 0.16. Moreover, the result in the data set on Trypanosoma cruzi [13], in the data set on Trypanosoma cruzi [15], in the data set on Trypanosoma cruzi [16], in the data set on Trypanosoma cruzi [20], in the data set on Splenocyte [21] and in the data set with Splenocyte [5] was Active. In addition, the result in the data set with Trypanosoma cruzi [23] and with Trypanosoma cruzi [24] was Active.

Turning to `O=C(Cn1ccnc1[N+](=O)[O-])NCc1ccccc1` [BENZNIDAZOLE], the IC50 in the data set with Trypanosoma cruzi [7] turned out to be 6.3 µM. Also, the Activity with Trypanosoma cruzi [8] stood at 22.44%; with Trypanosoma cruzi [9] it was 0.88%; in the data set with Trypanosoma cruzi [10] it was 12.44%; in the data set with Trypanosoma cruzi [12], 8.37%; with Trypanosoma cruzi [18], 1.18%; in the data set with Trypanosoma cruzi [22], 11.69%. In addition, in data set [11], the CC50 at 48 h turned out to be 124 µM. Also, the outcome in the data set with Trypanosoma cruzi [13], in the data set on Trypanosoma cruzi [15], in the data set on Trypanosoma cruzi [26], in the data set on Trypanosoma cruzi [20] and in the data set with Splenocyte [5] was Active. The selectivity ratio in data set [14] was determined as 8.5; in data set [17], 19.6.

`C/C(=N\N=C1\NC(=O)CS1)c1ccccn1`: the IC50 is 9.15 µM with Trypanosoma cruzi [7], 241 µM in the data set on Leishmania amazonensis [1], 15.1 µM in the data set on Leishmania amazonensis [4] and 38 µM in the data set with Trypanosoma cruzi [19]. For the same molecule, in [11], the CC50 at 48 h amounted to 134 µM. The selectivity ratio came out at 8.9 in data set [2], 3.5 in data set [14], 14.7 in data set [17] and 0.55 in [3].

On to `C/C(=N\N=C1/SCC(=O)N1C)c1ccccn1`, for which the IC50 in the data set on Trypanosoma cruzi [7] was determined as 80.5 µM; in the data set with Leishmania amazonensis [1], 80.5 µM; in the data set with Leishmania amazonensis [4], 506 µM; in the data set on Trypanosoma cruzi [19] it was 111 µM. Also, the cytotoxic concentration (CC50) at 48 h in [11] is 291 µM. In addition, the selectivity ratio in [2] turned out to be 0.6; in data set [14] it was 2.6; in data set [17], 3.61; in data set [3] it was 3.61.

By IC50 is commonly meant the concentration that gives 50% inhibition. Usually CC50 stands for the concentration at which the toxic effect on the cells reaches its halfway point.
